# Reference: PMC3070735, “Uremic Toxins Inhibit Transport by Breast Cancer Resistance Protein and Multidrug Resistance Protein 4 at Clinically Relevant Concentrations” (PLoS ONE, 2011)
# Where a name gives a salt, the structure may show the parent alone.
# How the values were obtained:
# [1] = design: method as in PMID 8832487, PMID 10052856; settings: isolated perfused rat kidney, secretory transport; cited from earlier work
# BCRP = molecular target: T1, BCRP (Homo sapiens, UniProt Q9UNQ0); experiment: Membrane vesicle transport inhibition assay: BCRP-mediated [3H]-E1S uptake
# T1 sequence (Q9UNQ0 1-655): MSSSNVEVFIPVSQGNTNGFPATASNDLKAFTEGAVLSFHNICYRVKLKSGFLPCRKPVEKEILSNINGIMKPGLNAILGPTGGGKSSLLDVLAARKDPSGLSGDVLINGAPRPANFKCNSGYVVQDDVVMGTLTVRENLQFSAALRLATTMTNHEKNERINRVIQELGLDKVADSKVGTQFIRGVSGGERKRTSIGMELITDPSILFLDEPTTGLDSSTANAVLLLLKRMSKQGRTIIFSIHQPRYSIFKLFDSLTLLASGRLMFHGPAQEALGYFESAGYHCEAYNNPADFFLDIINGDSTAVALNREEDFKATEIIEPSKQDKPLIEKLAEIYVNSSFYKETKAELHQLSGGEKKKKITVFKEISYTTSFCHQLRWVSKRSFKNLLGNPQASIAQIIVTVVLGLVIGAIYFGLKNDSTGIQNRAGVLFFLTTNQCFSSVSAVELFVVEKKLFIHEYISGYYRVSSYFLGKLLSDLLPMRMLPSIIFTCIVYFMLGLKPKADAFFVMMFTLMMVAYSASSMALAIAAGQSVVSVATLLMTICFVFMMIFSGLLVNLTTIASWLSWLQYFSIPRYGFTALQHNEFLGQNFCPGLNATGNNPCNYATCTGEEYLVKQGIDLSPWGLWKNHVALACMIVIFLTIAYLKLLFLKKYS
# Method: (§1) Human embryonic kidney (HEK293; purchased at American Type Culture Collection, Manassas, VA) cells were cultured in Dulbecco's modified Eagle's medium (Invitrogen life sciences, Breda, the Netherlands) containing 10% (v/v) fetal calf serum (MP Biomedicals, Uden, the Netherlands) at 37°C in a 5% (v/v) CO2 atmosphere. To functionally overexpress MRP4 and BCRP, HEK293 cells were transduced with baculoviruses of human MRP4, BCRP or enhanced yellow fluorescent protein (EYFP), generated via the Bac-to-Bac system (Invitrogen) as previously described. To transduce HEK293 cells, they were cultured in 500 cm^2 flasks until 70% confluence. Subsequently, medium was removed and 10 ml of virus and 25 ml of medium were added and incubated for 30 min at 37°C. Next, 50 ml of medium was added and after 2 h of transduction 5 mM sodium butyrate was added.
# (§2) Three days after transduction, cells were harvested and pelleted by centrifugation (30 min at 4,000 x g). Afterwards, the cells were resuspended in ice-cold hypotonic TS buffer (0.5 mM sodium phosphate, 0.1 mM EDTA, pH 7.0) containing protease inhibitors (100 µM phenylmethylsulfonyl fluoride, 5 µg/ml aprotinin, 5 µg/ml leupeptin, 1 µg/ml pepstatin and 1 µg/ml E-64) and shaken for 30 min at 4°C. Cells were then centrifuged at 100,000 x g for 30 min at 4°C. Subsequently, pellet was resuspended in ice-cold isotonic buffer (10 mM Tris-HEPES and 250 mM sucrose, pH 7.4, adjusted with HEPES) supplemented with protease inhibitors and homogenized using a tight fitting Dounce homogenizer followed by centrifugation (1,000 x g, 20 min, 4°C). Afterwards, supernatant was centrifuged at 100,000 x g for 1 h at 4°C. The resulting pellet was resuspended in isotonic buffer and passed through a 27-gauge needle 25 times to obtain crude membrane vesicles. The protein content of samples was determined using the Bio-Rad protein assay (Veenendaal, the Netherlands), according to manufacturers recommendations. Vesicles were frozen in liquid nitrogen and stored at −80°C until use. The orientation of the membrane vesicles was not determined, since ATP-dependent uptake occurs only in inside-out vesicles.
# (§3) A rapid filtration technique was used to study the uptake of [^3H]-MTX and [^3H]-E1S into MRP4 or BCRP membrane vesicles, as previously described. In short, 25 µl of TS buffer containing 4 mM ATP, 10 mM MgCl2 and radiolabeled substrate was added to 5 µl of the membrane vesicles (1.5 mg/ml). The transport assay was performed in the absence or presence of various concentrations of uremic toxins to evaluate the inhibitory effects of these compounds on MRP4-mediated [^3H]-MTX uptake and BCRP-mediated [^3H]-E1S uptake. […] Uptake was stopped by placing the samples on ice and the addition of 150 µl ice cold TS buffer. Subsequently, the samples were transferred to a 96 well filter plate (Millipore, Etten-leur, the Netherlands) pre-incubated with TS buffer and filtered using a Multiscreen HTS-Vacuum Manifold filtration device (Millipore). Afterwards, 2 ml of scintillation liquid was added to each filter and radioactivity was determined using liquid scintillation counting. As negative controls ATP was substituted for AMP and EYFP-membrane vesicles were used. Each experiment was performed in triplicates.
# (§4) Statistics were performed using GraphPad Prism 5.02 via an unpaired t test or a Kruskal-Wallis test followed by a Dunn's Multiple Comparison test. Differences between groups were considered to be statistically significant when p<0.05. The mean IC50 and IC20 values were calculated from the inhibition curves used for the Dixon analysis and to determine the inhibition constant (Ki) from the Dixon plots. Transport inhibition studies were performed in triplicate and repeated at least three times.
# MRP4 = molecular target: T2, MRP4 (Homo sapiens, UniProt O15439); experiment: Membrane vesicle transport inhibition assay: MRP4-mediated [3H]-MTX uptake
# T2 sequence (O15439 1-1325): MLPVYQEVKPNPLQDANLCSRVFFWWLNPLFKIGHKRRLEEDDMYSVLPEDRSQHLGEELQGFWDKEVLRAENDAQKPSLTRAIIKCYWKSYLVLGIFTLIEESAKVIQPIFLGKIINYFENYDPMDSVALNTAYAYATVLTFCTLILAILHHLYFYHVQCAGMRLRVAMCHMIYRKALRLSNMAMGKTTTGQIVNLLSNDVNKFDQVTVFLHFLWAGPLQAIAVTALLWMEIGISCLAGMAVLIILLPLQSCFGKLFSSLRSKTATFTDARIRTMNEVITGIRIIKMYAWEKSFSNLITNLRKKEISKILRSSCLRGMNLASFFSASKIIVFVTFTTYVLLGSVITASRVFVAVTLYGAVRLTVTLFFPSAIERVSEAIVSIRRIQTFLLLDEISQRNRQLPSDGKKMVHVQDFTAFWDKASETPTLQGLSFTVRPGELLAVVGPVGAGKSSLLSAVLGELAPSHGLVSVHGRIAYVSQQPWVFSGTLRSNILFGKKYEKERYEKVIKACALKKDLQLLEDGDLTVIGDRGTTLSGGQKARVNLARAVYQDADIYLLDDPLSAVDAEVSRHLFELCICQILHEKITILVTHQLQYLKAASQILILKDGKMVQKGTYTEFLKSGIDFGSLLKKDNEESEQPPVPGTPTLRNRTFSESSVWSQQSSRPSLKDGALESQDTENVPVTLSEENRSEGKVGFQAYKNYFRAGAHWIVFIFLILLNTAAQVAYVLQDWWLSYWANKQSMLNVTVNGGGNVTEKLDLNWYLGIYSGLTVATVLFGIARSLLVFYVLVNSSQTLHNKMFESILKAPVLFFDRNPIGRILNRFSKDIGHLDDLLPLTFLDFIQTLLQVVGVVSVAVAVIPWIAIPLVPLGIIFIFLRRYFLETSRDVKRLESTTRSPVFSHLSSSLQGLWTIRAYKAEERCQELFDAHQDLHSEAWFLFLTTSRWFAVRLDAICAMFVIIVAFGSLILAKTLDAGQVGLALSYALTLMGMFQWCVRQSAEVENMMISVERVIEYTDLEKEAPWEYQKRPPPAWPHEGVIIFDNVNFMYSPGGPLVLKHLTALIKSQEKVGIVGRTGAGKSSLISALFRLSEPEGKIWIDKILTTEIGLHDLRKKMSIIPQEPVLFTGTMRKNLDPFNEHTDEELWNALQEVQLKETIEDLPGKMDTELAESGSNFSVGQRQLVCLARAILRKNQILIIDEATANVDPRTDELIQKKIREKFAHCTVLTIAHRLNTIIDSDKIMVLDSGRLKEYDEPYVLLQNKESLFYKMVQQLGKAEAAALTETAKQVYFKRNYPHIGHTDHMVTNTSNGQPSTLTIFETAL
# Method: as §1
# as §2, with “Subsequently, pellet was resuspended in ice-cold isotonic buffer (10 mM Tris-HEPES and 250 mM sucrose, pH 7.4, adjusted with HEPES) supplemented with protease inhibitors and homogenized using a tight fitting Dounce homogenizer followed by centrifugation (1,000 x g, 20 min, 4°C).” left out, “The resulting pellet was resuspended in isotonic buffer and passed through a 27-gauge needle 25 times to obtain crude membrane vesicles.” left out
# as §3
# as §4, with “Differences” for “Statistics were performed using GraphPad Prism 5.02 via an unpaired t test or a Kruskal-Wallis test followed by a Dunn's Multiple Comparison test. Differences”
compound,measurement,setting,value
Cc1ccc(C(=O)NCC(=O)O)cc1 [4-methyl hippuric acid],Level in kidney tissue compared to the perfusate,[1],600 times
"N.[3H]C1c2cc(OS(=O)(=O)O)ccc2[C@H]2CC[C@]3(C)C(=O)CC[C@H]3[C@@H]2C1[3H] (stereo partly drawn) [[^3H]-E1S, [6′,7′-^3H(n)]-estrone-sulfate ammonium salt, reference compound]",ATP-dependent uptake compared to EYFP controls,BCRP; BCRP-overexpressing vesicles vs EYFP controls,24 fold
same,"ATP-dependent uptake, average rate","BCRP; BCRP-overexpressing vesicles, no inhibitor",15.5 pmol/mg/min
Cc1ccccc1C(=O)NCC(=O)O [2-methyl hippuric acid],Level in kidney tissue compared to the perfusate,[1],175 times
"CN(Cc1cnc2nc(N)nc(N)c2n1)c1ccc(C(=O)N[C@@H](CCC(=O)O)C(=O)O)cc1 [[^3H]-MTX, [3′,5′,7′-^3H(n)]-methotrexate disodium salt, reference compound]",ATP-dependent uptake compared to EYFP vesicles,MRP4; MRP4-overexpressing vesicles vs EYFP vesicles,11 fold
same,"ATP-dependent uptake, average rate","MRP4; MRP4-overexpressing vesicles, no inhibitor",1.3 pmol/mg/min
